Assay results published in patent US8921059B2, “Method and kit for detection of guaiacol-producing bacterium” (Calpis Co., Ltd., priority 2009, dated 2014).
“Also recorded” adds a separate entry of the source.

Key:
[1] = tested on: A. pomorum JCM21459; test: Colony formation of thermotolerant acidophilic bacteria on YSG agar medium containing the substrate (Example 1); type: cell-based, Alicyclobacillus pomorum; set-up: key to detected level of colonies: ++: the detected level was at or above the level of the medium without a substrate (i.e. YSG medium); +: the detected level was lower than the level of the medium without a substrate; −: undetectable; details: for detected level of colonies: cultivation at 45° C. for 3 days; for colonies detected: 45° C. for 3 days
Method: (§1) A YSG agar medium containing vanillin, vanillic acid or ferulic acid was used to study the colony formation of thermotolerant acidophilic bacteria (TAB). Four bacterial strains used were A. acidoterrestris ATCC49025, A. acidiphilus JCM21417, A. acidocaldarius ATCC27009 and A. pomorum JCM21459. Among these, A. acidoterrestris ATCC49025 and A. acidiphilus JCM21417 have been reported as the bacterial strains producing guaiacol. […] After cooling to about 50° C., pH was adjusted to 3.7 with 10% sulfuric acid and a plate medium was prepared. The suspensions of the respective bacterial strains were subjected to a heat-shock treatment at 70° C. for 20 min. The bacterial suspensions were serially diluted with phosphate buffered saline up to 10^3 CFU/mL and 100 μL from the dilutions was smeared on the plates for culture. Cultivation was carried out at 45° C. for 3 days before the colonies formed were visually inspected. Similar experiments were carried out with replacing vanillic acid with vanillin or ferulic acid. When the medium was not easily solidified, the amount of agar was appropriately adjusted.

[2] = tested on: A. acidoterrestris ATCC49025; test: as above; type: cell-based, Alicyclobacillus acidoterrestris; set-up: key to detected level of colonies: ++: the detected level was at or above the level of the medium without a substrate (i.e. YSG medium); +: the detected level was lower than the level of the medium without a substrate; −: undetectable; details: for detected level of colonies: cultivation at 45° C. for 3 days
Text: A YSG agar medium containing vanillin, vanillic acid or ferulic acid was used to study the colony formation of thermotolerant acidophilic bacteria (TAB). Four bacterial strains used were A. acidoterrestris ATCC49025, A. acidiphilus JCM21417, A. acidocaldarius ATCC27009 and A. pomorum JCM21459. Among these, A. acidoterrestris ATCC49025 and A. acidiphilus JCM21417 have been reported as the bacterial strains producing guaiacol. A YSG medium (Merck K.K., YGS Agar; 20.0 g) and vanillic acid (Wako Pure Chemical Industries, Ltd.; 0 to 250 mg) were dissolved in 1000 g of water with heating and subjected to autoclave sterilization (121° C. and 15 min.). After cooling to about 50° C., pH was adjusted to 3.7 with 10% sulfuric acid and a plate medium was prepared. The suspensions of the respective bacterial strains were subjected to a heat-shock treatment at 70° C. for 20 min. The bacterial suspensions were serially diluted with phosphate buffered saline up to 10^3 CFU/mL and 100 μL from the dilutions was smeared on the plates for culture. Cultivation was carried out at 45° C. for 3 days before the colonies formed were visually inspected. Similar experiments were carried out with replacing vanillic acid with vanillin or ferulic acid. When the medium was not easily solidified, the amount of agar was appropriately adjusted.

[3] = tested on: A. acidoterrestris ATCC49025; test: Effects of culture temperature on the detection level of colonies (Example 2); type: cell-based, Alicyclobacillus acidoterrestris; details: for number of colonies, relative value (YSG medium without any substrate at 45° C. for 3 days = 100): 75 ppm in YSG medium
Method: Effects of culture temperature on the detection level of colonies of A. acidoterrestris ATCC49025 were studied using YSG agar medium containing vanillin, vanillic acid or ferulic acid. […] The suspensions containing the same number of bacterial cells of A. acidoterrestris ATCC49025 were smeared on the plates and cultured at 45° C. or 30° C. A YSG medium without any substrate was used as a control. The values are expressed as relative values to the number of colonies obtained after cultivation at 45° C. for 3 days in a YSG medium without any substrate being regarded as 100.

[4] = tested on: A. acidiphilus JCM21417; test: Colony formation of thermotolerant acidophilic bacteria on YSG agar medium containing the substrate (Example 1); type: cell-based, Alicyclobacillus acidiphilus; set-up: key to detected level of colonies: ++: the detected level was at or above the level of the medium without a substrate (i.e. YSG medium); +: the detected level was lower than the level of the medium without a substrate; −: undetectable; details: for detected level of colonies: cultivation at 45° C. for 3 days
Method: as §1

[5] = tested on: A. acidocaldarius ATCC27009; test: as above; type: cell-based, Alicyclobacillus acidocaldarius; set-up: key to detected level of colonies: ++: the detected level was at or above the level of the medium without a substrate (i.e. YSG medium); +: the detected level was lower than the level of the medium without a substrate; −: undetectable; details: for detected level of colonies: cultivation at 45° C. for 3 days; for colonies detected: 45° C. for 3 days
Method: as §1

[6] = used instead of vanillic acid, concentration not given

## COc1cc(/C=C/C(=O)O)ccc1O [ferulic acid]
[1]; 25 ppm in YSG agar
  detected level of colonies: −
[1]; 50 ppm in YSG agar
  detected level of colonies: −
[1]; 75 ppm in YSG agar
  detected level of colonies: −
[2]; 25 ppm in YSG agar
  detected level of colonies: ++
[2]; 50 ppm in YSG agar
  detected level of colonies: ++
[2]; 75 ppm in YSG agar
  detected level of colonies: −
[3]; 25 ppm
  detection sensitivity compared to the medium without any substrate: improved
[3]; [6]
  number of colonies at 30° C. for 5 days compared with 45° C. for 3 days: The same tendency was observed
[4]; 25 ppm in YSG agar
  detected level of colonies: ++
[4]; 50 ppm in YSG agar
  detected level of colonies: −
[4]; 75 ppm in YSG agar
  detected level of colonies: −
[5]; 25 ppm in YSG agar
  detected level of colonies: −
[5]; 50 ppm in YSG agar
  detected level of colonies: −
[5]; 75 ppm in YSG agar
  detected level of colonies: −

## COc1cc(C(=O)O)ccc1O [vanillic acid]
[1]; 10 ppm in YSG agar
  detected level of colonies: ++
[1]; 50 ppm in YSG agar
  detected level of colonies: −
[1]; 75 ppm in YSG agar
  detected level of colonies: −
[1]; 75 ppm
  colonies detected: no colony was detected
[1]; 100 ppm in YSG agar
  detected level of colonies: −
[1]; 100 ppm
  colonies detected: no colony was detected
[1]; 150 ppm in YSG agar
  detected level of colonies: −
[1]; 200 ppm in YSG agar
  detected level of colonies: −
[1]; 225 ppm in YSG agar
  detected level of colonies: −
[1]; 250 ppm in YSG agar
  detected level of colonies: −
[2]; 10 ppm in YSG agar
  detected level of colonies: ++
[2]; 50 ppm in YSG agar
  detected level of colonies: ++
[2]; 75 ppm in YSG agar
  detected level of colonies: ++
[2]; 75 ppm, 45° C. for 3 days
  colonies detected compared with medium without vanillic acid: the same level or more colonies were detected as in the medium without vanillic acid
[2]; 100 ppm in YSG agar
  detected level of colonies: ++
[2]; 100 ppm, 45° C. for 3 days
  colonies detected compared with medium without vanillic acid: the same level or more colonies were detected as in the medium without vanillic acid
[2]; 150 ppm in YSG agar
  detected level of colonies: ++
[2]; 150 ppm, 45° C. for 3 days
  colonies detected compared with medium without vanillic acid: detected at the same level as in the medium without vanillic acid
[2]; 200 ppm in YSG agar
  detected level of colonies: ++
[2]; 200 ppm, 45° C. for 3 days
  colonies detected compared with medium without vanillic acid: detected at the same level as in the medium without vanillic acid
[2]; 225 ppm in YSG agar
  detected level of colonies: +
[2]; 225 ppm, 45° C. for 3 days
  detection sensitivity of AAT: lower
[2]; 250 ppm in YSG agar
  detected level of colonies: −
[2]; 250 ppm or more, 45° C. for 3 days
  colonies detected: no colonies were detected
[3]; 50 ppm
  detection sensitivity compared to the medium without any substrate: improved
[3]; 30° C., 5 days
  number of colonies, relative value (YSG medium without any substrate at 45° C. for 3 days = 100): 186
[3]; 45° C., 3 days
  number of colonies, relative value (YSG medium without any substrate at 45° C. for 3 days = 100): 183
[3]; 75 ppm in solid medium
  number of colonies at 30° C. for 5 days compared with 45° C. for 3 days: the same number of colonies is obtained; also recorded: almost the same number of colonies was detected
[3]; 75 ppm, 45° C.
  colonies detected compared to the medium without any substrate: more colonies were detected
[4]; 10 ppm in YSG agar
  detected level of colonies: ++
[4]; 50 ppm in YSG agar
  detected level of colonies: ++
[4]; 75 ppm in YSG agar
  detected level of colonies: ++
[4]; 75 ppm, 45° C. for 3 days
  colonies detected compared with medium without vanillic acid: the same level or more colonies were detected as in the medium without vanillic acid
[4]; 100 ppm in YSG agar
  detected level of colonies: −
[4]; 100 ppm, 45° C. for 3 days
  colonies detected: no colony was detected
[4]; 150 ppm in YSG agar
  detected level of colonies: −
[4]; 200 ppm in YSG agar
  detected level of colonies: −
[4]; 225 ppm in YSG agar
  detected level of colonies: −
[4]; 250 ppm in YSG agar
  detected level of colonies: −
[5]; 10 ppm in YSG agar
  detected level of colonies: ++
[5]; 50 ppm in YSG agar
  detected level of colonies: −
[5]; 75 ppm in YSG agar
  detected level of colonies: −
[5]; 75 ppm
  colonies detected: no colony was detected
[5]; 100 ppm in YSG agar
  detected level of colonies: −
[5]; 100 ppm
  colonies detected: no colony was detected
[5]; 150 ppm in YSG agar
  detected level of colonies: −
[5]; 200 ppm in YSG agar
  detected level of colonies: −
[5]; 225 ppm in YSG agar
  detected level of colonies: −
[5]; 250 ppm in YSG agar
  detected level of colonies: −

## COc1cc(C=O)ccc1O [vanillin]
[1]; 500 ppm in YSG agar
  detected level of colonies: −
[1]; 750 ppm in YSG agar
  detected level of colonies: −
[1]; 900 ppm in YSG agar
  detected level of colonies: −
[1]; 950 ppm in YSG agar
  detected level of colonies: −
[1]; 1000 ppm in YSG agar
  detected level of colonies: −
[2]; 500 ppm in YSG agar
  detected level of colonies: ++
[2]; 750 ppm in YSG agar
  detected level of colonies: ++
[2]; 900 ppm in YSG agar
  detected level of colonies: ++
[2]; 950 ppm in YSG agar
  detected level of colonies: ++
[2]; 1000 ppm in YSG agar
  detected level of colonies: +
[3]; 750 ppm
  detection sensitivity compared to the medium without any substrate: improved
[3]; [6]
  number of colonies at 30° C. for 5 days compared with 45° C. for 3 days: The same tendency was observed
[4]; 500 ppm in YSG agar
  detected level of colonies: +
[4]; 750 ppm in YSG agar
  detected level of colonies: +
[4]; 900 ppm in YSG agar
  detected level of colonies: +
[4]; 950 ppm in YSG agar
  detected level of colonies: −
[4]; 1000 ppm in YSG agar
  detected level of colonies: −
[5]; 500 ppm in YSG agar
  detected level of colonies: −
[5]; 750 ppm in YSG agar
  detected level of colonies: −
[5]; 900 ppm in YSG agar
  detected level of colonies: −
[5]; 950 ppm in YSG agar
  detected level of colonies: −
[5]; 1000 ppm in YSG agar
  detected level of colonies: −
